“Also recorded” adds a separate entry of the source.
Legend:
[1] = system: human peripheral blood mononuclear cells (hPBMCs); test: Immunogenic reaction on human PBMCs (LEGENDplex Human Inflammation Panel); type: cell-based; conditions: for immune stimulation (secretion of inflammatory cytokines and chemokines): 1, 5, 10 uM aptamer, 24 and 72 h, versus mock or control aptamer
Protocol: 147. Human PBMCs were isolated from buffy coats provided by Carter BloodCare(Bedford, TX, USA). Isolation was carried out through density-gradient centrifugation utilizing FicollPaque Plus from GE Healthcare. The isolated human PBMCs suspended in cRPMI media were subjected to stimulation with or without the AYA1809002 and AYA1809004 aptamers and a control aptamer. Various concentrations (1, 5, and 10 uM) of these aptamers were used, along with positive control stimuli such as LPS (200 ng/mL), ODN 1826 (20 uM, Invitrogen), or a combination of LPS (100 ng/mL) and ODN 1826 (10 uM). Following incubation periods of 24 and 72 h, the cell supernatant was collected via centrifugation at 200 g for 3 min. Cytokine levels were evaluated using the LEGENDplex Human Inflammation Panel 1 from BioLegend (cat #740808, San Diego, CA, USA) following the manufacturer's protocol, soluble analytes were acquired using a Navios EX flow cytometer (Beckman Coulter Inc, Pasadena, CA USA), and subsequent analysis was performed using BioLegend's LEGENDPLEX™ system(San Diego, CA, USA).

[2] = target: thrombin (Homo sapiens, UniProt P00734); test: Direct thrombin activity inhibition (Thrombin Inhibitor Screening Assay Kit, fluorometric); type: biochemical; parameters: a thrombin enzyme mixture was added to each sample and control well; purchased Abcam ab197007; conditions: different aptamer concentrations; AMC substrate, 360/460 nm, 45 min, 37° C.
Protocol: 141. A Thrombin Inhibitor Screening Assay Kit (fluorometric) (Abcam, cat #ab197007, Waltham, Boston, MA, USA) was employed to test the direct binding ability and inhibitory potential of the AYA1809002 and AYA1809004 aptamers against thrombin. The procedure was carried out following the standard protocol provided with the kit. […] Subsequently, a thrombin enzyme mixture was added to each sample and control well. Following an incubation period of 20 min, a substrate mixture was introduced into each sample and control well. Fluorescence measurements were taken using a SYNERGY/HTX multi-mode reader (BioTek, Agilent Technologies, Santa Clara, CA 95051, USA) with the excitation/emission wavelengths set at 360/460 nm. The measurements were recorded for 45 min at a temperature of 37° C. while ensuring protection from light.
155. The direct binding and inhibitory capabilities of AYA1809002 and AYA1809004 ap- tamers on thrombin were evaluated using a Thrombin Inhibitor Screening Assay Kit (fluorometric). The procedure was carried out following the standard protocol provided with the kit. […] The fluorescence intensity is then measured over time to assess the thrombin inhibitory potential of the sample. […] The released AMC is detectable through fluorescence measurement at an excitation/emission wavelength of 360/460 nm.

[3] = target: T1, Factor II activity (Homo sapiens, UniProt P00734); test: Dose-dependent Factor II activity in whole blood; type: biochemical; conditions: 1, 2, 3, 4 uM; 2 h room temperature; citrated whole human blood
T1 construct: tissue Rockland Immunochemicals, Inc R214-0050; host or cells: human citrated plasma / whole blood
Protocol: 138. […] Factor II activity was measured using human plasma immunodepleted of Factor II for the quantitative determination of Factor II activity in citrated plasma based on the prothrombin time (PT) assay, for which an ACLTOP coagulation analyzer manufactured by Instrumentation Laboratory (Bedford, MA, USA) was used. To evaluate the dose-dependent activity of the aptamers in whole blood, human blood samples were collected in citrate-treated tubes. Subsequently, the blood samples were incubated at room temperature for 2 h in both the absence and presence of various concentrations of thrombin aptamers. To measure the Factor II activity using the ACLTOP coagulation analyzer, plasma was separated from the cells by centrifugation at 1500×g for 10 min at 4° C. For the dose-dependent study, concentrations of 1 uM, 2 uM, 3 uM, and 4 uM of AYA1809002 and AYA1809004 were utilized.
156. To facilitate future applications, gaining a comprehensive understanding of the activity of aptamers in whole blood is of paramount importance. To assess their effectiveness, we tested the selected aptamers at various concentrations in whole blood to evaluate their impact on Factor II activity and PT time. Human blood samples were collected in citrate- treated tubes. The blood samples were then incubated at room temperature for 2 h in the absence or presence of varying concentrations of thrombin aptamers. […]

[4] = target: T2, clot-bound thrombin (Homo sapiens, UniProt P00734); test: Clot-bound thrombin inhibition; type: biochemical; conditions: for inhibition of clot-bound thrombin: washed clots from platelet-rich plasma, fluorogenic substrate, 90 min, 37° C.
T2 construct: from tissue; host or cells: washed fibrin clots formed from platelet-rich plasma of healthy donors
Protocol: 145. For the inhibition study of clot-bound thrombin, blood samples were collected from healthy donors using citrate-treated tubes and centrifuged at 200×g for 15 min at room temperature. The resulting supernatant consisting of platelet-rich plasma (PRP) was collected and aliquots of 500 μL were transferred to microfuge tubes containing 50 μL of 300 mM CaCl2). The mixture was then incubated for 2 h at 37° C. in an incubator without agitation. The formed clots were washed ten times over the course of 16 h at room temperature; each time, 1 mL aliquots of TBS buffer (50 mM Tris-HCl, 100 mM NaCl, pH 7.4) were added to the clots with mixing. Subsequently, the washed clots were transferred to the assay plate (ThermoFisher Scientific, cat #3915, Waltham, MA, USA). […] After a 20 min incubation period with agitation, a thrombin substrate (, Thrombin substrate III, Fluorogenic, Sigma-Aldrich, cat #605211, St. Louis, MO, USA) was added to each sample at a final concentration of 200 μM. Fluorescence measurements were performed using a SYNERGY/HTX multi-mode reader (BioTek, Agilent Technologies, Santa Clara, CA 95051, USA) with the excitation/emission wavelengths set at 360/460 nm. The measurements were recorded for a total duration of 90 min at a temperature of 37° C.

Row | Substance | immune stimulation (secretion of inflammatory cytokines and chemokines) [1] | Safety: immunogenicity and side effects ([1]; Table 3) | inhibition of thrombin activity [2] | effect on Factor II activity in whole blood [3] | level of clot-bound thrombin inhibition, comparison ([4]; comparison between aptamers and with dabigatran 2 μM) | inhibition of clot-bound thrombin [4]
1 | AYA1809002: ssDNA thrombin aptamer GCGGTGTTGCTGGGGTTGGGAGGTTGGAGGAAGCAATCGC | do not exhibit immune-stimulating properties; also recorded: did not exhibit immune-stimulating properties | Low immunogenicity | dose-dependent inhibition of thrombin activity | dose-dependent decrease in Factor II activity | higher level of inhibition compared to AYA1809004 | inhibit clot-bound thrombin in a concentration-dependent manner
2 | AYA1809004: ssDNA thrombin aptamer TCGTCAAGGTACGGTTGGGGGGGTGGGTGTTGACGTTGAA (DNA, backbone not given here) | do not exhibit immune-stimulating properties |  | dose-dependent inhibition of thrombin activity | dose-dependent decrease in Factor II activity |  | inhibit clot-bound thrombin in a concentration-dependent manner

— patent US20250304973A1, “HIGH-AFFINITY THROMBIN APTAMERS AND METHODS OF USE” (Ayass Bioscience LLC, priority 2024, published 2025)
